pKi: −log10 of the molar value.
Legend:
HLE = assay: in vivo tests (Acute Lung Injury Model, Acute Hemorrhagic Assay); details: basis for compounds of particular interest
[1] = molecular target: T1, human leukocyte elastase (HLE) (Homo sapiens, UniProt P08246); assay: Inhibition measurements: Ki against HLE on substrate methoxy-succinyl-alanyl-alanyl-prolyl-valine-p-nitroanilide; type: biochemical; details: read-out: Ki, dissociation constant of the complex of inhibitor with HLE
T1 sequence (P08246 30-247 limits assumed): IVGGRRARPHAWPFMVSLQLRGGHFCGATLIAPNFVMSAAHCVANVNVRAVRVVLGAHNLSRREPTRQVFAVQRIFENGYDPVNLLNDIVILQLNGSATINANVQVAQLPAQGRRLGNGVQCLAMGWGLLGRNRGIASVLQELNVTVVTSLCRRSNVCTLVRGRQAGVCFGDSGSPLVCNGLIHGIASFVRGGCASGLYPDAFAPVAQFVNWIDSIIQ
Experimental: The potency of a Compound to act as an inhibitor of human leukocyte elastase (HLE) on the low molecular weight peptide substrate methoxy-succinyl-alanyl-alanyl-prolyl-valine-p-nitroanilide is determined as described in U.S. Pat. No. 4,910,190. The potency of an inhibitor is evaluated by obtaining a kinetic determination of the dissociation constant, Ki, of the complex formed from the interaction of the inhibitor with HLE. If a Compound is found to be a "slow-binding" inhibitor of HLE, special methods of analysis to accurately determine Ki values for the inhibition of HLE are carried out as described in U.S. Pat. No. 4,910,190. In general, the Ki values for Compounds of the invention which were tested are generally on the order of 10^-7 M or much less.

[2] = test system: human neutrophil elastase (HNE); assay: Acute Hemorrhagic Assay: lung hemorrhage after intratracheal HNE in hamsters; type: in vivo, hamster; details: 2.5 mg/kg by mouth, male Syrian hamsters
Experimental: This assay relies on monitoring only the amount of hemorrhage in the lung following intratracheal administration of human neutrophil elastase (HNE). Hemorrhage is quantified by disrupting erythrocytes recovered in lung lavage fluid and comparing that to dilutions of whole hamster blood. The screening protocol, similar to that described in Fletcher et al., American Review of Respiratory Disease (1990), 141, 672-677, is as follows. […] The compounds are then dosed by mouth to male Syrian hamsters at a fixed time, such as 30 or 90 min, prior to intratracheal administration of 50 μg/animal of HNE in 300 μL phosphate buffered saline (PBS) pH 7.4. Four hours enzyme administration, the animals are killed with an overdose of pentobarbital sodium, the thorax opened and the lungs and trachea removed. […] The recovered lavages are pooled, the volumes (about 5 mL) are recorded and the lavages stored at 4° C. until assayed. […] The optical densities (OD) of the disrupted lavages and blood samples are determined at 405 nm. The (μL blood equivalents)/(mL lavage) are determined by comparing the OD of the test samples with the OD of the standard curve prepared from whole hamster blood. The total μL equivalents of blood recovered is determined by multiplying recovered lavage volume by the (μL blood equivalents)/(mL lavage) for each sample. […]

Row | Structure (SMILES) | activity in in vivo tests (HLE) | further results
1 | CC(C)C(NC(=O)Cn1c(-c2cccs2)ncc(N)c1=O)C(=O)C(F)(F)F (centres unmarked) [Example 12, 2-[5-Amino-6-oxo-2-(2-thienyl)-1,6-dihydro-1-pyrimidinyl]-N-(3,3,3-trifluoro-1-isopropyl-2-oxopropyl)acetamide] | activity in in vivo tests | 
2 | CC(C)C(NC(=O)Cn1c(-c2cccs2)ncc(NC=O)c1=O)C(=O)C(F)(F)F (centres unmarked) [Example 157] | activity in in vivo tests | 
3 | CCNc1cnc(-c2cccs2)n(CC(=O)NC(C(=O)C(F)(F)F)C(C)C)c1=O (centres unmarked) [Example 82] | activity in in vivo tests | 
4 | CSC(=O)Nc1cnc(-c2ccc(F)cc2)n(CC(=O)NC(C(=O)C(F)(F)F)C(C)C)c1=O (centres unmarked) [Example 102] | activity in in vivo tests | 
5 | CSC(=O)Nc1cnc(-c2ccccc2)n(CC(=O)NC(C(=O)C(F)(F)F)C(C)C)c1=O (centres unmarked) [Example 100] | activity in in vivo tests | 
6 | CC(C)C(NC(=O)Cn1c(-c2ccccc2)ncc(NC=O)c1=O)C(=O)C(F)(F)F (centres unmarked) [Example 159] | activity in in vivo tests | 
7 | CC(C)C(NC(=O)Cn1c(-c2cccs2)ncc(NC(=O)OCC(F)(F)F)c1=O)C(=O)C(F)(F)F (centres unmarked) [Example 106] | activity in in vivo tests | 
8 | CC(C)OC(=O)Nc1cnc(-c2cccs2)n(CC(=O)NC(C(=O)C(F)(F)F)C(C)C)c1=O (centres unmarked) [Example 51] | activity in in vivo tests | pKi [1]: 7.57; inhibition of hemorrhage ([2]; 30 min prior to HNE): statistically significant inhibition of hemorrhage; inhibition of hemorrhage ([2]; 90 min prior to HNE): statistically significant inhibition of hemorrhage
